# Data taken from ChEMBL document CHEMBL1201862, “PubChem BioAssay data set” (2004).
#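 Test compounds were applied to cells in 96-well plates for 48 hours at 5 doses. At the GI50, growth is halved.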 Activity calls are given as the source filed them. Rule as the data show it: active = GI50 up to about 1.1 µM and inactive = higher.
# Key:
# Assay in all cases: inhibition of tumour cell growth, NCI panel, 48 h
# CAKI-1 = system: CAKI-1
# HOP-62 = system: HOP-62
# NCI-H226 = system: NCI-H226
# OVCAR-8 = system: OVCAR-8
# RXF 393 = system: RXF 393
# OVCAR-5 = system: OVCAR-5
# SK-OV-3 = system: SK-OV-3
# A498 = system: A498
# M14 = system: M14
# OVCAR-4 = system: OVCAR-4
# SN12C = system: SN12C
# SNB-75 = system: SNB-75
# HCT-116 = system: HCT-116
# NCI-H522 = system: NCI-H522
# SW-620 = system: SW-620
# HCC 2998 = system: HCC 2998
# COLO 205 = system: COLO 205
# SK-MEL-5 = system: SK-MEL-5
# CCRF-CEM = system: CCRF-CEM
# SNB-19 = system: SNB-19
# SK-MEL-2 = system: SK-MEL-2
# LXFL 529 = system: LXFL 529
# UACC-257 = system: UACC-257
# MOLT-4 = system: MOLT-4
# IGROV-1 = system: IGROV-1
# TK-10 = system: TK-10
# K562 = system: K562
# HL-60 = system: HL-60
# LOX IMVI = system: LOX IMVI
# DLD-1 = system: DLD-1
# RXF 631 = system: RXF 631
# OVCAR-3 = system: OVCAR-3
# HCT-15 = system: HCT-15
# XF498 = system: XF498
# SK-MEL-28 = system: SK-MEL-28
# 786-0 = system: 786-0
# NCI-H460 = system: NCI-H460
# SR = system: SR
# Malme-3M = system: Malme-3M
# HOP-18 = system: HOP-18
# SNB-78 = system: SNB-78
# KM12 = system: KM12
# A549 = system: A549
# HT-29 = system: HT-29
# DMS-114 = system: DMS-114
# UACC-62 = system: UACC-62
# SF-268 = system: SF-268
# RPMI-8226 = system: RPMI-8226
# M19-MEL = system: M19-MEL
# SF-539 = system: SF-539
# U-251 = system: U-251
# HOP-92 = system: HOP-92
# EKVX = system: EKVX
# DMS-273 = system: DMS-273
# NCI-H23 = system: NCI-H23
# KM-20L2 = system: KM-20L2
# UO-31 = system: UO-31
# ACHN = system: ACHN
# SF-295 = system: SF-295
structure (smiles),measurement,setting,value
NCCc1ccc2oc3cc(=O)c4ccccc4c-3nc2c1,GI50,CAKI-1,11.5 µM (inactive)
same,GI50,HOP-62,3.09 µM (inactive)
same,GI50,NCI-H226,5.19 µM (inactive)
same,GI50,OVCAR-8,4.91 µM (inactive)
same,GI50,RXF 393,2.84 µM (inactive)
same,GI50,OVCAR-5,6.14 µM (inactive)
same,GI50,SK-OV-3,12.1 µM (inactive)
same,GI50,A498,13.3 µM (inactive)
same,GI50,M14,1.71 µM (inactive)
same,GI50,OVCAR-4,4.68 µM (inactive)
same,GI50,SN12C,2.22 µM (inactive)
same,GI50,SNB-75,2.22 µM (inactive)
same,GI50,HCT-116,1.41 µM (inactive)
same,GI50,NCI-H522,2.59 µM (inactive)
same,GI50,SW-620,2.19 µM (inactive)
same,GI50,HCC 2998,2.37 µM (inactive)
same,GI50,COLO 205,0.428 µM (active)
same,GI50,SK-MEL-5,0.705 µM (active)
same,GI50,CCRF-CEM,1.79 µM (inactive)
same,GI50,SNB-19,2.71 µM (inactive)
same,GI50,SK-MEL-2,1.71 µM (inactive)
same,GI50,LXFL 529,2.58 µM (inactive)
same,GI50,UACC-257,2.37 µM (inactive)
same,GI50,MOLT-4,1.9 µM (inactive)
same,GI50,IGROV-1,2.59 µM (inactive)
same,GI50,TK-10,14 µM (inactive)
same,GI50,K562,2.02 µM (inactive)
same,GI50,HL-60,1.68 µM (inactive)
same,GI50,LOX IMVI,1.24 µM (inactive)
same,GI50,DLD-1,2.04 µM (inactive)
same,GI50,RXF 631,2.96 µM (inactive)
same,GI50,OVCAR-3,2.16 µM (inactive)
same,GI50,HCT-15,0.966 µM
same,GI50,XF498,3.41 µM (inactive)
same,GI50,SK-MEL-28,3.81 µM (inactive)
same,GI50,786-0,2.12 µM (inactive)
same,GI50,NCI-H460,0.9 µM (active)
same,GI50,SR,1.62 µM (inactive)
same,GI50,Malme-3M,2.12 µM (inactive)
same,GI50,HOP-18,1 µM (active)
same,GI50,SNB-78,9.35 µM (inactive)
same,GI50,KM12,2.67 µM (inactive)
same,GI50,A549,0.478 µM (active)
same,GI50,HT-29,1.82 µM (inactive)
same,GI50,DMS-114,1.08 µM (active)
same,GI50,UACC-62,4.37 µM (inactive)
same,GI50,SF-268,3.85 µM (inactive)
same,GI50,RPMI-8226,2.55 µM (inactive)
same,GI50,M19-MEL,0.3 µM (active)
same,GI50,SF-539,2.6 µM (inactive)
same,GI50,U-251,2.62 µM (inactive)
same,GI50,HOP-92,7.71 µM (inactive)
same,GI50,EKVX,11.6 µM (inactive)
same,GI50,DMS-273,1.36 µM (inactive)
same,GI50,NCI-H23,0.746 µM (active)
same,GI50,KM-20L2,2.75 µM (inactive)
same,GI50,UO-31,2.14 µM (inactive)
same,GI50,ACHN,2.61 µM (inactive)
same,GI50,SF-295,2.3 µM (inactive)
O=C(CC1(O)C(=O)Nc2c(Cl)ccc(Cl)c21)c1ccc(F)cc1 (stereo unspecified),GI50,CAKI-1,44.7 µM (inactive)
same,GI50,HOP-62,46.7 µM (inactive)
same,GI50,NCI-H226,24.8 µM (inactive)
same,GI50,OVCAR-8,36.3 µM (inactive)
same,GI50,RXF 393,29.5 µM (inactive)
same,GI50,OVCAR-5,> 100 µM (inactive)
same,GI50,SK-OV-3,> 100 µM (inactive)
same,GI50,M14,38.8 µM (inactive)
same,GI50,OVCAR-4,31 µM (inactive)
same,GI50,SN12C,60.1 µM (inactive)
same,GI50,SNB-75,24.1 µM (inactive)
same,GI50,NCI-H522,30.3 µM (inactive)
same,GI50,SW-620,34.1 µM (inactive)
same,GI50,HCC 2998,82.4 µM (inactive)
same,GI50,COLO 205,96.6 µM (inactive)
same,GI50,SK-MEL-5,17.9 µM (inactive)
same,GI50,CCRF-CEM,25.9 µM (inactive)
same,GI50,SNB-19,46.6 µM (inactive)
same,GI50,SK-MEL-2,48.5 µM (inactive)
same,GI50,LXFL 529,19.4 µM (inactive)
same,GI50,UACC-257,33.5 µM (inactive)
same,GI50,MOLT-4,25 µM (inactive)
same,GI50,TK-10,55.8 µM (inactive)
same,GI50,K562,23.3 µM (inactive)
same,GI50,HL-60,28.4 µM (inactive)
same,GI50,LOX IMVI,32.7 µM (inactive)
same,GI50,DLD-1,52.5 µM (inactive)
same,GI50,RXF 631,37 µM (inactive)
same,GI50,OVCAR-3,34.8 µM (inactive)
same,GI50,HCT-15,38.7 µM
same,GI50,XF498,32.7 µM (inactive)
same,GI50,SK-MEL-28,> 100 µM (inactive)
same,GI50,786-0,31.2 µM (inactive)
same,GI50,NCI-H460,54.8 µM (inactive)
same,GI50,Malme-3M,69.5 µM (inactive)
same,GI50,HOP-18,29.6 µM (inactive)
same,GI50,SNB-78,35.6 µM (inactive)
same,GI50,KM12,43 µM (inactive)
same,GI50,A549,58.1 µM (inactive)
same,GI50,HT-29,40.4 µM (inactive)
same,GI50,DMS-114,22.7 µM (inactive)
same,GI50,SF-268,36.1 µM (inactive)
same,GI50,RPMI-8226,18 µM (inactive)
same,GI50,U-251,67.3 µM (inactive)
same,GI50,HOP-92,30.4 µM (inactive)
same,GI50,EKVX,44.4 µM (inactive)
same,GI50,DMS-273,33.7 µM (inactive)
same,GI50,NCI-H23,23.2 µM (inactive)
same,GI50,KM-20L2,39.8 µM (inactive)
same,GI50,UO-31,44.5 µM (inactive)
same,GI50,ACHN,66.1 µM (inactive)
same,GI50,SF-295,36 µM (inactive)
